In US8158621B2, “Methods of treating or preventing autoimmune diseases with 2,4-pyrimidinediamine compounds” (Rigel Pharmaceuticals, Inc., priority 2002, dated 2012):

tested on: Human Jurkat T-cells (clone N); test: Jurkat T-cell activation (anti-TCR, CD69 upregulation); assay type: cell-based; conditions: not given
Procedure, shortened: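 Readout is CD69 upregulation by flow cytometry (anti-CD69-APC, 20 min at 4 °C) after 20 h anti-TCR (C305, 500 ng/ml) stimulation at 37 °C.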

Point of comparison: `CNC(=O)COc1cccc(Nc2ncc(F)c(Nc3cccc(C(=NO)c4ccccc4)c3)n2)c1` [Compound R950374], IC50 1.65 µM. Against it:
- COC(=O)COc1cccc(Nc2ncc(F)c(Nc3ccc4c(c3)C(OC)CCO4)n2)c1 (centres unmarked) [Compound R950295] — 2.9-fold higher, 4.71 µM
- N#Cc1cnc(Nc2ccc(OCC(=O)N3CCCCC3)cc2)nc1Nc1ccc(OCC(=O)N2CCCCC2)cc1 [Compound R925855] — higher, > 10 µM
- Nc1cccc(Nc2nc(Nc3cccc(NC(=O)CCC(N)C(=O)O)c3)ncc2F)c1 (racemic) [Compound R950255] — higher, > 10 µM
- O=C(CNc1cccc(Nc2ncc(F)c(Nc3ccc4c(c3)OCCO4)n2)c1)NCCNCc1ccccc1 [Compound R950198] — within 1.5-fold, 1.99 µM
- CCOC(=O)COc1cccc(Nc2ncc(F)c(Nc3cc(C)c(O)c(C)c3)n2)c1 [Compound R940253] — 11-fold higher, 17.4 µM
- CNC(=O)C(C)(C)Oc1cccc(Nc2ncc(F)c(Nc3ccc4c(c3)OCCO4)n2)c1 [Compound R926915] — higher, > 10 µM
- CNC(=O)COc1cc(Nc2ncc(F)c(Nc3ccc4cc[nH]c4c3)n2)ccc1OC [Compound R926752] — within 1.5-fold, 1.73 µM
- COC(=O)c1cc2cc(Nc3ncc(F)c(Nc4ccc5c(c4)C(=O)OC5)n3)ccc2o1 [Compound R940294] — higher, > 10 µM
- O=C1COc2cc(Nc3nc(Nc4cccc(O)c4)ncc3F)ccc2N1 [Compound R908698] — 2.3-fold higher, 3.75 µM
- CNC(=O)COc1cccc(Nc2ncc(F)c(Nc3ccc4c(c3)C=CCO4)n2)c1 [Compound R950385] — 1.6-fold higher, 2.58 µM
- Fc1cnc(Nc2ccc3[nH]ncc3c2)nc1Nc1ccc2c(c1)OCCO2 [Compound R935198] — within 1.5-fold, 1.45 µM
- CNC(=O)COc1ccc(Nc2ncc(F)c(Nc3ccc4c(c3)OCCO4)n2)cc1 [Compound R926708] — 2-fold higher, 3.3 µM
- CCOC(=O)COc1cccc(Nc2ncc(F)c(Nc3ccc(-n4cnc(Cl)c4Cl)cc3)n2)c1 [Compound R926809] — higher, > 10 µM
- CNC(=O)COc1cccc(Nc2ncc(F)c(Nc3ccc(C)c(OC)c3)n2)c1 [Compound R926902] — higher, > 10 µM
- O=C(CNc1cccc(Nc2ncc(F)c(Nc3cccc(NCCO)c3)n2)c1)N1CCNCC1 [Compound R950241] — 3.1-fold higher, 5.19 µM
- Cc1nc(COc2cccc(Nc3ncc(F)c(Nc4ccc5c(c4)OCCO5)n3)c2)no1 [Compound R945128] — 2.6-fold higher, 4.31 µM
- O=C(NC(CO)CO)c1cc2cc(Nc3ncc(F)c(Nc4ccc5c(c4)OCCO5)n3)ccc2o1 [Compound R926785] — 1.6-fold higher, 2.58 µM
- CNC(=O)COc1ccc(Nc2nc(Nc3ccc4c(c3)OCCO4)ncc2F)cc1 [Compound R945173] — 1.7-fold higher, 2.88 µM
- Cc1nc(COc2cccc(Nc3ncc(F)c(Nc4cccc(O)c4)n3)c2)no1 [Compound R945127] — 6.7-fold higher, 11.1 µM
- CCOC(=O)COc1ccc(Nc2nc(Nc3ccc(OCC(=O)OCC)cc3)c(NC(=O)NC(=O)CCl)c(C(=O)OCC)n2)cc1 [Compound R926589] — higher, > 10 µM
- O=C(O)Cc1cccc(Nc2ncc(F)c(Nc3cccc(CC(=O)O)c3)n2)c1 [Compound R935117] — higher, > 10 µM
- COC(=O)Cn1ncc2ccc(Nc3nc(Nc4ccc(OC(C)C)cc4)ncc3F)cc21 [Compound R935218] — 14-fold higher, 22.7 µM
- OCCn1ncc2cc(Nc3ncc(F)c(Nc4cccc(O)c4)n3)ccc21 [Compound R935256] — 1.8-fold lower, 0.92 µM
- Fc1cnc(Nc2ccc(OCCN3CCOCC3)cc2)nc1Nc1ccc2c(c1)OCCO2 [Compound R926709] — within 1.5-fold, 2.47 µM
- CNC(=O)COc1cccc(Nc2ncc(F)c(Nc3ccc(OC)c(C(=O)NC(C)C)c3)n2)c1 [Compound R940312] — 9.8-fold higher, 16.2 µM
- CC(C)(C)c1cccc(Nc2nc(Nc3cccc(OCC(=O)NCC(O)CO)c3)ncc2F)c1 (centres unmarked) [Compound R940277] — within 1.5-fold, 1.22 µM
- CCOC(=O)COc1ccc(Nc2ncc(F)c(Nc3ccc(OCC(=O)OCC)c(Cl)c3)n2)cc1Cl [Compound R926676] — higher, > 10 µM
- COC(=O)Cn1ncc2cc(Nc3ncc(F)c(Nc4cccc(O)c4)n3)ccc21 [Compound R935237] — higher, > 10 µM
- CSc1nc(Nc2cccc(O)c2)nc(Nc2cccc(O)c2)c1Cl [Compound R926595] — higher, > 10 µM
- CCOC(=O)C1CCN(C(=O)c2cccc(Nc3nc(Nc4cccc(OCC(=O)NC)c4)ncc3F)c2)CC1 [Compound R926941] — higher, > 10 µM
- Cc1cc(Nc2nc(Nc3cccc(OCC(=O)N4CCNCC4)c3)ncc2F)cc(C)c1O [Compound R945140] — within 1.5-fold, 2.09 µM
- COC(=O)Cn1ncc2cc(Nc3nc(Nc4ccc(OC(C)C)cc4)ncc3F)ccc21 [Compound R935242] — higher, > 10 µM
- COC(=O)COc1ccc(Nc2nc(Nc3ccc(OCC#N)cc3)ncc2F)cc1 [Compound R945062] — higher, > 10 µM
- CCOC(=O)COc1ccc(Nc2nc(Nc3ccc(OCC(=O)OCC)cc3)c(NC(=O)NC(=O)OCC)c(C(=O)OCC)n2)cc1 [Compound R926586] — higher, > 10 µM
- CC(C)NC(=O)COc1ccc(Nc2ncc(C#N)c(Nc3ccc(OCC(=O)NC(C)C)cc3)n2)cc1 [Compound R925861] — 12-fold higher, 20.2 µM
- Fc1cnc(Nc2ccc(OCc3nn[nH]n3)cc2)nc1Nc1ccc(OCc2nn[nH]n2)cc1 [Compound R945033] — higher, > 10 µM
- CNC(=O)COc1cccc(Nc2ncc(F)c(Nc3cccc(NCCO)c3)n2)c1 [Compound R950265] — 1.7-fold lower, 0.982 µM
- CNC(=O)COc1cccc(Nc2nc(Nc3cccc(O)c3)ncc2C(F)(F)F)c1 [Compound R926741] — 2.8-fold higher, 4.59 µM
- ON=C(c1ccccc1)c1cccc(Nc2ncc(F)c(Nc3cccc(C(=NO)c4ccccc4)c3)n2)c1 [Compound R950380] — 5.3-fold higher, 8.69 µM
- COc1cc(C(=O)NS(=O)(=O)c2ccccc2C)ccc1Cn1ncc2cc(Nc3ncc(F)c(Nc4ccc5c(c4)OCCO5)n3)ccc21 [Compound R935339] — higher, > 10 µM
- CC(C)Oc1ccc(Nc2ncc(F)c(Nc3ccc(OCc4nc(-c5ccccc5)no4)cc3)n2)cc1 [Compound R935139] — 6.7-fold higher, 11 µM
- CNC(=O)COc1cccc(Nc2ncc(F)c(Nc3cccc(Cl)c3)n2)c1 [Compound R926832] — 1.8-fold higher, 2.99 µM
- COC(=O)COc1ccc(Nc2ncc(F)c(Nc3ccc(OCC#N)cc3)n2)cc1 [Compound R945053] — 1.6-fold higher, 2.67 µM
- COC(=O)Cn1ncc2ccc(Nc3ncc(F)c(Nc4cccc(O)c4)n3)cc21 [Compound R935215] — 4.8-fold higher, 7.96 µM
- Cn1nnc(COc2ccc(Nc3ncc(F)c(Nc4ccc(OCc5nnn(C)n5)cc4)n3)cc2)n1 [Compound R945046] — 2.5-fold higher, 4.08 µM
- Oc1cccc(Nc2nc(Nc3ccc4[nH]ncc4c3)ncc2F)c1 [Compound R935199] — 1.5-fold higher, 2.51 µM

same assay, conditions: Homo sapiens

`COc1ccc([N+](=O)[O-])cc1Nc1ncc(F)c(Nc2cc([N+](=O)[O-])ccc2OC)n1` [Compound R950151] showed an IC50 of 14.2 µM.

same assay, conditions: Homo sapiens, Jurkat

Point of comparison: `Oc1ccc(Nc2ncc(F)c(Nc3ccc(O)c(Cl)c3)n2)cc1Cl` [Compound R926675], IC50 2.37 µM. Against it:
- Nc1nc(N(CC(O)c2ccccc2)c2ccc3c(c2)OCCO3)ncc1F (centres unmarked) [Compound R925765] — higher, > 10 µM
- CCOC(=O)c1cnc(Nc2ccc(CC#N)cc2)nc1Nc1ccc(CC#N)cc1 [Compound R926319] — 6.6-fold higher, 15.6 µM
- COC(=O)c1cc(Nc2ncc(F)c(Nc3cccc(O)c3)n2)cc(C(F)(F)F)c1 [Compound R926863] — higher, > 10 µM
- OB(O)c1cccc(Nc2nc(Nc3cccc(O)c3)ncc2F)c1 [Compound R926755] — 3.1-fold higher, 7.36 µM
- c1cc(Nc2ccc3c(c2)OCCO3)nc(Nc2ccc3c(c2)OCCO3)n1 [Compound R926243] — within 1.5-fold, 2.99 µM
- COc1cc(Nc2nc(Cl)ncc2F)c(OC)cc1Cl [Compound R926858] — higher, > 10 µM
- COC(=O)C(CC(C)C)Nc1ncc(C#N)c(NC(CC(C)C)C(=O)OC)n1 (centres unmarked) [Compound R925815] — higher, > 10 µM
- Oc1cccc(Nc2cc(Nc3cccc(O)c3)nc(Nc3cccc(O)c3)n2)c1 [Compound R926409] — within 1.5-fold, 3.54 µM
- Fc1cnc(NCc2ccco2)nc1NCc1ccco1 [Compound R925769] — higher, > 10 µM
- COc1cc(Nc2ncc(F)c(Nc3cccc(O)c3)n2)c(OC)cc1Cl [Compound R926857] — higher, > 10 µM
- O=C1CCNC2=COc3ccc(Nc4nc(Nc5cccc(O)c5)ncc4F)cc3N12 [Compound R945237] — 2.8-fold lower, 0.838 µM
- OCCOc1ccc(Nc2ncc(F)c(Nc3cccc(O)c3)n2)cc1 [Compound R926376] — higher, > 10 µM
- CC(=O)Nc1ccc(Nc2ncc(F)c(Nc3ccc(NC(C)=O)cc3)n2)cc1 [Compound R940222] — 4-fold higher, 9.47 µM
- OC(CNc1ncc(F)c(NCC(O)c2ccccc2)n1)c1ccccc1 (centres unmarked) [Compound R925768] — higher, > 10 µM
- CCCCCCOc1ccc(Nc2ncc(F)c(Nc3ccc4c(c3)OCCO4)n2)cc1 [Compound R920664] — higher, > 10 µM
- Nc1cccc(Nc2ccnc(Nc3cccc(N)c3)n2)c1 [Compound R950109] — 5.4-fold higher, 12.8 µM
- Oc1cccc(Nc2nc(Nc3cccc(-c4cnco4)c3)ncc2F)c1 [Compound R926831] — 1.9-fold lower, 1.27 µM
- CCOC(=O)C1CCN(C(=O)c2cccc(Nc3ncc(F)c(Nc4cccc(O)c4)n3)c2)CC1 [Compound R926939] — higher, > 10 µM
- O=C(O)C1CCC(Nc2nc(Nc3ccc4c(c3)OCCO4)ncc2F)CC1 (centres unmarked) [Compound R925795] — higher, > 10 µM
- Oc1cccc(Nc2nc(Nc3cccc(-c4cc[nH]n4)c3)ncc2F)c1 [Compound R926841] — within 1.5-fold, 3.28 µM
- c1ccc(-c2ccccc2Nc2ccnc(Nc3ccccc3-c3ccccc3)n2)cc1 [Compound R925804] — higher, > 10 µM
- CCOC(=O)C(Nc1ncc(C#N)c(NC(C(=O)OCC)C(C)C)n1)C(C)C (centres unmarked) [Compound R925814] — 6-fold higher, 14.2 µM
- COC(=O)C=C1C=CC=C(Nc2ncc(F)c(NC3=CC=CC(=CC(=O)OC)C3)n2)C1 [Compound R935114] — higher, > 10 µM
- CCNC(=O)Nc1cccc(Nc2ncc(F)c(Nc3cccc(NC(=O)NCC)c3)n2)c1 [Compound R945045] — 3.2-fold higher, 7.6 µM
- COC(=O)c1cc2cc(Nc3ncc(F)c(Nc4ccc5oc(C(=O)OC)cc5c4)n3)ccc2o1 [Compound R926604] — higher, > 10 µM
- Fc1cnc(Cl)nc1Nc1cccc(-c2nnc(-c3ccccc3)o2)c1 [Compound R926869] — higher, > 10 µM
- OCCN(CCO)c1cccc(Nc2ncc(F)c(Nc3ccc4c(c3)OCCO4)n2)c1 [Compound R950209] — 1.6-fold higher, 3.8 µM
- Oc1cccc(Nc2cc(Cl)nc(Nc3cccc(O)c3)n2)c1 [Compound R926408] — higher, > 10 µM
